Values after ≈ are worked out from the molar mass of the structure shown. Values joined by “and” are separate entries in the source; they are usually repeats but may differ in a detail not shown here. Equal values may be shown once.
What was measured:
Assay in all cases: ≥ marks a high value that may be exact or a test limit, other limits are often not marked, values filed in µg/mL are converted to µM
[1] = test system: Staphylococcus aureus ATCC 25923
[2] = test system: Bacillus subtilis ATCC 6633
[3] = test system: Candida albicans ATCC 20032
[4] = test system: Escherichia coli ATCC 25922
[5] = test system: Staphylococcus epidermidis C621
Escherichia coli UB1005 = test system: Escherichia coli UB1005
[6] = test system: Enterococcus faecalis ATCC 29212
[7] = test system: Pseudomonas aeruginosa ATCC 27853
[8] = test system: Listeria monocytogenes EGD
Escherichia coli ML-35p = test system: Escherichia coli ML-35p

MIC [1] [µM]	MIC [2] [µM]	MIC [3] [µM]	MIC [4] [µM]	MIC [5] [µM]	MIC (Escherichia coli UB1005) [µM]	MIC [6] [µM]	MIC [7] [µM]	MIC [8]	MIC (Escherichia coli ML-35p)	Structure (SMILES)
> 62.3	≥ 62.3	≥ 62.3	> 62.3	–	–	–	–	–	–	CC[C@H](C)[C@H](N)C(=O)N[C@@H](CC(C)C)C(=O)NCC(=O)N1CCC[C@H]1C(=O)N[C@H](C(=O)N[C@@H](CC(C)C)C(=O)NCC(=O)N[C@@H](CC(C)C)C(=O)N[C@H](C(=O)N[C@@H](CO)C(=O)N[C@@H](CC(N)=O)C(=O)N[C@@H](C)C(=O)N[C@@H](CC(C)C)C(=O)NCC(=O)NCC(=O)N[C@@H](CC(C)C)C(=O)N[C@@H](CC(C)C)C(N)=O)C(C)C)C(C)C [ILGPVLGLVSNALGGLL]
32 (≈ 81.8 µg/mL)	2 (≈ 5.11 µg/mL)	–	16 (≈ 40.9 µg/mL)	4 (≈ 10.2 µg/mL)	8 (≈ 20.4 µg/mL)	> 32	8 (≈ 20.4 µg/mL)	–	–	C[C@H](NC(=O)[C@H](C)NC(=O)[C@H](C)NC(=O)[C@H](CCCCN)NC(=O)[C@@H](N)CCCCN)C(=O)N[C@@H](C)C(=O)N[C@@H](Cc1ccccc1)C(=O)N[C@@H](C)C(=O)N[C@@H](C)C(=O)N[C@@H](Cc1ccccc1)C(=O)N[C@@H](C)C(=O)N[C@@H](C)C(=O)N[C@@H](Cc1c[nH]c2ccccc12)C(=O)N[C@@H](Cc1ccccc1)C(=O)N[C@@H](C)C(=O)N[C@@H](C)C(=O)N[C@@H](Cc1ccccc1)C(=O)N[C@@H](C)C(=O)N[C@@H](C)C(=O)N[C@@H](C)C(=O)N[C@@H](C)C(=O)N[C@@H](CCCCN)C(=O)N[C@@H](CCCCN)C(=O)N[C@@H](CCCCN)C(=O)N[C@@H](CCCCN)C(N)=O [KKAAAAFAAFAAWFAAFAAAAKKKK]
> 50.9	≥ 50.9	≥ 50.9	> 50.9	–	–	–	–	–	–	CC[C@H](C)[C@H](N)C(=O)N[C@@H](CC(C)C)C(=O)NCC(=O)N1CCC[C@H]1C(=O)N[C@H](C(=O)N[C@H](C(=O)N[C@@H](CO)C(=O)N[C@H](C(=O)N[C@H](C(=O)NCC(=O)N[C@@H](CC(N)=O)C(=O)N[C@@H](C)C(=O)N[C@@H](CC(C)C)C(=O)NCC(=O)NCC(=O)N[C@@H](CC(C)C)C(=O)N[C@@H](CC(C)C)C(=O)N[C@@H](CCCCN)C(=O)N[C@@H](CC(N)=O)C(=O)N[C@@H](CC(C)C)C(N)=O)[C@@H](C)CC)[C@@H](C)O)[C@@H](C)CC)C(C)C [ILGPVISTIGNALGGLLKNL]
–	–	–	–	–	–	–	–	2.2 µM and 1.8 µM	2.4 µM and 7.1 µM	CC[C@H](C)[C@@H]1NC(=O)[C@H](CCCN=C(N)N)NC(=O)[C@@H]2CSSC[C@@H]3NC(=O)[C@H]([C@@H](C)O)NC(=O)CNC(=O)[C@H](Cc4ccc(O)cc4)NC(=O)[C@H](CCCN=C(N)N)NC(=O)[C@H](CCCN=C(N)N)NC(=O)[C@H](CCC(=O)O)NC(=O)CNC(=O)[C@H](C)NC(=O)[C@H](Cc4ccccc4)NC(=O)[C@H](CSSC[C@H](NC(=O)[C@H](Cc4ccccc4)NC(=O)[C@H](C)NC(=O)[C@H](Cc4c[nH]c5ccccc45)NC(=O)[C@H](C(C)C)NC(=O)[C@H](CCCN=C(N)N)NC(=O)CNC(=O)[C@H](CC(C)C)NC(=O)[C@H](Cc4ccc(O)cc4)NC(=O)[C@H](Cc4ccccc4)NC3=O)C(=O)N[C@H](C(=O)O)CSSC[C@H](NC(=O)[C@H](C)N)C(=O)N[C@@H](Cc3ccc(O)cc3)C(=O)N2)NC(=O)[C@H](C)NC(=O)[C@@H]2CCCN2C1=O [ACYCRIPACFAGERRYGTCFYLGRVWAFCC]
5.8 (≈ 12.5 µg/mL)	–	23.1 (≈ 49.8 µg/mL)	–	–	–	–	–	–	–	CC[C@H](C)[C@@H]1NC(=O)[C@H](CO)NC(=O)[C@H](CCCCN)NC(=O)[C@H]([C@@H](C)O)NC(=O)[C@H](Cc2c[nH]c3ccccc23)NC(=O)[C@@H](NC(=O)CNC(=O)[C@H](CCCN=C(N)N)NC(=O)[C@H](CC(C)C)NC(=O)[C@H](C)NC(=O)[C@H](C)N)CSSC[C@@H](C(=O)N[C@@H](CO)C(=O)NCC(=O)N[C@@H](CCCCN)C(=O)N[C@@H](CCCN=C(N)N)C(=O)O)NC(=O)[C@@H]2CCCN2C(=O)[C@H](CCCCN)NC(=O)[C@@H]2CCCN2C(=O)[C@@H]2CCCN2C1=O [AALRGCWTKSIPPKPCSGKR]

Source: DBAASP
